Data: ChEMBL document CHEMBL2380262, “Pyrrolidine analogs of GZ-793A: synthesis and evaluation as inhibitors of the vesicular monoamine transporter-2 (VMAT2)” (Bioorg Med Chem Lett, 2013)
pKi: −log10 of the molar value.

Columns and labels:
[1] = target: T1, Synaptic vesicular amine transporter (Rattus norvegicus, UniProt Q01827); assay: Inhibition of VMAT2-mediated [3H]DA uptake in rat striatal synaptic vesicles by liquid scintillation spectroscopic analysis
[2] = target: T1, Synaptic vesicular amine transporter; assay: Displacement of [3H]DTBZ from VMAT2 in Sprague-Dawley rat synaptic vesicle membranes after 30 mins by scintillation counting analysis; format: cell membranes, Membrane

T1 sequence (Q01827 whole entry): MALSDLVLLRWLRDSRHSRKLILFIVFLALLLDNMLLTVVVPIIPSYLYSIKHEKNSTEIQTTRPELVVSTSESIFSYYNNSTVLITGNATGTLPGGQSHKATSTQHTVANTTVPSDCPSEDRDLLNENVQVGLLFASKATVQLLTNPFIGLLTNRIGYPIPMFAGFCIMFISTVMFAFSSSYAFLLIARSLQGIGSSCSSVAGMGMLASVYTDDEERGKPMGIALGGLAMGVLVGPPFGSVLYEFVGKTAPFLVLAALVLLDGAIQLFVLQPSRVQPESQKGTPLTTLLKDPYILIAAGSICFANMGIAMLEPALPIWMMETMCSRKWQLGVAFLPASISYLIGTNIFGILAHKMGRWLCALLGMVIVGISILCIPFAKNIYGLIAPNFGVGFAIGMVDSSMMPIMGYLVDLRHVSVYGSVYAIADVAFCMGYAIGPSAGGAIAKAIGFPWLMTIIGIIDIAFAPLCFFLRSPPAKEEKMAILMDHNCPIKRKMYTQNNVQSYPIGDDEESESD

| pKi [1] | pKi [2] | Compound |
| --- | --- | --- |
| 6.55 | 5.23 | OC[C@H](O)CN1[C@H](CCc2ccccc2)CC[C@@H]1CCc1ccccc1 |
| 6.57 | 5.63 | COc1ccccc1CC[C@@H]1CC[C@H](CCc2ccccc2OC)N1C[C@@H](O)CO |
| 6.57 | 5.07 | OC[C@H](O)CN1[C@H](CCc2ccc3c(c2)OCO3)CC[C@@H]1CCc1ccc2c(c1)OCO2 |
| 5.42 | < 4.00 | COc1ccc(CC[C@@H]2CC[C@H](CCc3ccc(OC)c(OC)c3)N2C[C@@H](O)CO)cc1OC |

| Compound | pKi [1] | pKi [2] |
| --- | --- | --- |
| COc1ccc(CC[C@@H]2CC[C@H](CCc3ccc(OC)cc3)N2C[C@@H](O)CO)cc1 | 7.31 | 5.40 |
